Laboratory results: patent publication US12516056B2, “Compounds for inhibition of janus kinase 1” (MANKIND PHARMA LTD., priority 2019, dated 2026)

Columns and labels:
[1] = molecular target: T1, Recombinant JAK1 (Homo sapiens, UniProt P23458); assay: JAK biochemical assay (LANCE Ultra TR-FRET), JAK1; conditions: recombinant JAK1, TR-FRET; read-out: Biochemical Assay (μM) JAK1
T1 construct: purchased Carna Biosciences
Procedure, shortened: (§1)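 % inhibition relative to vehicle was derived from TR-FRET signal proportional to ULight-substrate phosphorylation. Reactions used recombinant kinase in HEPES pH 7.5 buffer containing EGTA, MgCl2, DTT and Tween-20.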

[2] = molecular target: T2, Recombinant JAK2 (Homo sapiens, UniProt O60674); assay: JAK biochemical assay (LANCE Ultra TR-FRET), JAK2; conditions: recombinant JAK2, TR-FRET; read-out: Biochemical Assay (μM) JAK2
T2 construct: purchased Carna Biosciences
Procedure, shortened: as §1

[3] = molecular target: T3, Recombinant JAK3 (Homo sapiens, UniProt P52333); assay: JAK biochemical assay (LANCE Ultra TR-FRET), JAK3; conditions: recombinant JAK3, TR-FRET; read-out: Biochemical Assay (μM) JAK3
T3 construct: purchased Carna Biosciences
T3 sequence (P52333 1-1124): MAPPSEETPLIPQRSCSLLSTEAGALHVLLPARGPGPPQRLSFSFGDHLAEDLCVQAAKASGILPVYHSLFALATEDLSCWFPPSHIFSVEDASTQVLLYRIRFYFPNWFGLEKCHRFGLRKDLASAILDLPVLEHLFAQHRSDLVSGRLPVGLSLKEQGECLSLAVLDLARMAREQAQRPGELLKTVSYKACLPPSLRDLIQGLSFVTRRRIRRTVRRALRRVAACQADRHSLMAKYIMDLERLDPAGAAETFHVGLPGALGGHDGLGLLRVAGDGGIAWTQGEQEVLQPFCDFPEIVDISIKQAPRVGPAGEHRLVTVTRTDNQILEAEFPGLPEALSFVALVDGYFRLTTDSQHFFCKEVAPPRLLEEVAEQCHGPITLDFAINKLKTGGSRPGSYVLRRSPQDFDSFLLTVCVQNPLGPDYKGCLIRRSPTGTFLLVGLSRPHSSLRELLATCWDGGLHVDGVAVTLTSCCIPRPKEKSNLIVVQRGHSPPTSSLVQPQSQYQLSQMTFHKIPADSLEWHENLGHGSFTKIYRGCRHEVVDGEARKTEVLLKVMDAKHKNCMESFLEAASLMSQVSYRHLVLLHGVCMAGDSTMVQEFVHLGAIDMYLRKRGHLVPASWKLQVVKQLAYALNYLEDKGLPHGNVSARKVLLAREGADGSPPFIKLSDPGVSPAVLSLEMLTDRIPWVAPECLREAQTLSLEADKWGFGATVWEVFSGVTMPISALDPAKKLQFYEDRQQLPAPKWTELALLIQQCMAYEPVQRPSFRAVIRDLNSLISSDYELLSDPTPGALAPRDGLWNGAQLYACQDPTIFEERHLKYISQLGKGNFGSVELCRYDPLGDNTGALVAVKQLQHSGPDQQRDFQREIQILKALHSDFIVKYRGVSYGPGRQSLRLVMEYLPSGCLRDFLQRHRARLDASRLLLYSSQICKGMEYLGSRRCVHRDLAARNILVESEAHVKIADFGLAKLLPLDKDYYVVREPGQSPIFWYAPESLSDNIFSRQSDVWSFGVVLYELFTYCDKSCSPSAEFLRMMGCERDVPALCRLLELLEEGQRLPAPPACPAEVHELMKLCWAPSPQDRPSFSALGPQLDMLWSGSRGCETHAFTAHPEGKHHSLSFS
Procedure, shortened: as §1

[4] = molecular target: T4, Recombinant TYK2 (Homo sapiens, UniProt P29597); assay: JAK biochemical assay (LANCE Ultra TR-FRET), TYK2; conditions: recombinant TYK2, TR-FRET; read-out: Biochemical Assay (μM) TYK2
T4 construct: purchased Carna Biosciences
Procedure, shortened: as §1

[5] = system: STAT3 phosphorylation by IL-6 in TF-1 cells; assay: JAK cellular assay: STAT3 phosphorylation by IL-6 in TF-1 cells (HTRF); type: cell-based; conditions: Homo sapiens, TF-1, TF-1 cells, IL-6 30 ng/ml, pSTAT3 HTRF; read-out: Cell Based Assay (μM) TF-1/IL-6/pSTAT3
Procedure, shortened: (§2)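 Phospho-STAT3 (IL-6, 30 ng/ml) and phospho-STAT5 (GMCSF, 5 ng/ml) read by HTRF in lysates after 20 min cytokine exposure, minus unstimulated-cell background. Cells were serum-starved overnight, plated at 120,000/well, given compound 30 min at 37 °C beforehand; DMSO 0.2% final.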

[6] = system: STAT5 phosphorylation by GMCSF in TF-1 cells; assay: JAK cellular assay: STAT5 phosphorylation by GMCSF in TF-1 cells (HTRF); type: cell-based; conditions: Homo sapiens; TF-1 cells, GMCSF 5 ng/ml, pSTAT5 HTRF; read-out: Cell Based Assay (μM) TF-1/GMCSF/pSTAT5
Procedure, shortened: as §2

[7] = system: STAT5 phosphorylation by IL-2 in HT-2 cells; assay: STAT5 phosphorylation by IL-2 in HT-2 cells (HTRF); type: cell-based; conditions: HT2, HT-2 cells, IL-2 50 U/ml, pSTAT5 HTRF; read-out: Cell Based Assay (μM) HT-2/IL-2/pSTAT5
Procedure, shortened: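 Readout is HTRF detection of phospho-STAT5 in lysates, corrected for signal from unstimulated cells. Before lysis, HT-2 cells starved in 10% FBS medium received compound for 30 min (0.2% DMSO final, 37 °C), followed by 50 U/ml recombinant human IL-2 for 20 min.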

[8] = system: IFN-γ production in NK 92 cells by IL-12; assay: IFN-γ production in NK 92 cells by IL-12 (ELISA); conditions: NK92, IFN-γ secretion, read-out: Cell Based Assay (μM) NK-92/IL-2/IFN-γ

T4 sequence (P29597 whole entry): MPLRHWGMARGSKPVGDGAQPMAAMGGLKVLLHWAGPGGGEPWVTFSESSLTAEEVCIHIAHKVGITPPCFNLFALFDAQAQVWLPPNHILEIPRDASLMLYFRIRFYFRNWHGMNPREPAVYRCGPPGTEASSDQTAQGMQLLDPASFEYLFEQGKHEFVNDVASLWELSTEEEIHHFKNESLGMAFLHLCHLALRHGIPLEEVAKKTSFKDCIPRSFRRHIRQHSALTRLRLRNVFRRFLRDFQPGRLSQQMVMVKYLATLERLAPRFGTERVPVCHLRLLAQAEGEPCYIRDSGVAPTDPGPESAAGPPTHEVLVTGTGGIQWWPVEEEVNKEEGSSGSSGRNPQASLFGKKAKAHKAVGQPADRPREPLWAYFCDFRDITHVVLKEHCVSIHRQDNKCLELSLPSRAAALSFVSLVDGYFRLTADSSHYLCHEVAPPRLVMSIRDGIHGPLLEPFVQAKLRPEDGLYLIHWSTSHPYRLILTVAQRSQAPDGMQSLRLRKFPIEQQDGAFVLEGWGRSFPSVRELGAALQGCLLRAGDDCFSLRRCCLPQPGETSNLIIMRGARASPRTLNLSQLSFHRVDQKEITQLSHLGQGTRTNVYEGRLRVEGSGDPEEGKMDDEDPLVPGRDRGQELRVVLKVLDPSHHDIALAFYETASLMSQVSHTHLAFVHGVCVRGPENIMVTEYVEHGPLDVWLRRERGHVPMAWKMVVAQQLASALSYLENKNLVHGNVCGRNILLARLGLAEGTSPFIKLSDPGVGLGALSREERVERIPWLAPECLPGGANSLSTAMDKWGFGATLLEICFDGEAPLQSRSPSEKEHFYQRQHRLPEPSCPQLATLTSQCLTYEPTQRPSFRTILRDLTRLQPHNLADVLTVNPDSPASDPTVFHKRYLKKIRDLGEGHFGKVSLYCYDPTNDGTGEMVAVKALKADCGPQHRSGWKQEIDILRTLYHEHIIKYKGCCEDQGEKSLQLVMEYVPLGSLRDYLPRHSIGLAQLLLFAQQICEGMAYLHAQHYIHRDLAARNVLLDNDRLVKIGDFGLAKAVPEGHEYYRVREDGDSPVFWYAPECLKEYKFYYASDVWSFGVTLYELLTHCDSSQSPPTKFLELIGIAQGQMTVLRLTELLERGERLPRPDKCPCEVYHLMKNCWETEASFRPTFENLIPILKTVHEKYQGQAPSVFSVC
T2 sequence (O60674 whole entry): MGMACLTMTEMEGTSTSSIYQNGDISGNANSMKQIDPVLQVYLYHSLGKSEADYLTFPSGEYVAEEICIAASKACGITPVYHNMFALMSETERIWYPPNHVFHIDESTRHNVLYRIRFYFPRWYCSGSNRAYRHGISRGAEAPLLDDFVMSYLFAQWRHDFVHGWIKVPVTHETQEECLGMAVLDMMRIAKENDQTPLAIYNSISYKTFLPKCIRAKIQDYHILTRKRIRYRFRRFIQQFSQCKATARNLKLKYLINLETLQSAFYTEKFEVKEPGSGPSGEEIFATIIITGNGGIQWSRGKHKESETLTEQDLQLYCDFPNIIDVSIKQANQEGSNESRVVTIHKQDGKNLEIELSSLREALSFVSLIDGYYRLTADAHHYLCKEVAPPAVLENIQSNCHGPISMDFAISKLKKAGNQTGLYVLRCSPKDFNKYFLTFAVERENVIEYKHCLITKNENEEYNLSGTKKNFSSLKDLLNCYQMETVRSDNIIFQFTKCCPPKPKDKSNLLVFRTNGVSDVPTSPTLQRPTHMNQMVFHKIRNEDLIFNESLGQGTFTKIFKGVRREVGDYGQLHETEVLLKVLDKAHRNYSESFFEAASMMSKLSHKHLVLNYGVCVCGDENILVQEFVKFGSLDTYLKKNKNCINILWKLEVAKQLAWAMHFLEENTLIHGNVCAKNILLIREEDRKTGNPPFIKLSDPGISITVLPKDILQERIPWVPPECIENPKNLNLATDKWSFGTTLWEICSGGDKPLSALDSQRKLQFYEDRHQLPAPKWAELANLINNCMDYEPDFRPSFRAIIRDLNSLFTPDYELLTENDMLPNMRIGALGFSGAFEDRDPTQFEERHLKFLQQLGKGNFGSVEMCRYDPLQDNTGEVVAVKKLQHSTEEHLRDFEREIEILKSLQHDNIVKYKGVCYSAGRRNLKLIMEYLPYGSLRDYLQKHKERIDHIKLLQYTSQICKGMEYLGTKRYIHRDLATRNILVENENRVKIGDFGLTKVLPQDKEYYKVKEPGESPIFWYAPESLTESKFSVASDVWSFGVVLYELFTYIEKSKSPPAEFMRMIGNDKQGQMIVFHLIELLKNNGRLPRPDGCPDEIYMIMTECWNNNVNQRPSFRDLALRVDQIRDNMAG
T1 sequence (P23458 whole entry): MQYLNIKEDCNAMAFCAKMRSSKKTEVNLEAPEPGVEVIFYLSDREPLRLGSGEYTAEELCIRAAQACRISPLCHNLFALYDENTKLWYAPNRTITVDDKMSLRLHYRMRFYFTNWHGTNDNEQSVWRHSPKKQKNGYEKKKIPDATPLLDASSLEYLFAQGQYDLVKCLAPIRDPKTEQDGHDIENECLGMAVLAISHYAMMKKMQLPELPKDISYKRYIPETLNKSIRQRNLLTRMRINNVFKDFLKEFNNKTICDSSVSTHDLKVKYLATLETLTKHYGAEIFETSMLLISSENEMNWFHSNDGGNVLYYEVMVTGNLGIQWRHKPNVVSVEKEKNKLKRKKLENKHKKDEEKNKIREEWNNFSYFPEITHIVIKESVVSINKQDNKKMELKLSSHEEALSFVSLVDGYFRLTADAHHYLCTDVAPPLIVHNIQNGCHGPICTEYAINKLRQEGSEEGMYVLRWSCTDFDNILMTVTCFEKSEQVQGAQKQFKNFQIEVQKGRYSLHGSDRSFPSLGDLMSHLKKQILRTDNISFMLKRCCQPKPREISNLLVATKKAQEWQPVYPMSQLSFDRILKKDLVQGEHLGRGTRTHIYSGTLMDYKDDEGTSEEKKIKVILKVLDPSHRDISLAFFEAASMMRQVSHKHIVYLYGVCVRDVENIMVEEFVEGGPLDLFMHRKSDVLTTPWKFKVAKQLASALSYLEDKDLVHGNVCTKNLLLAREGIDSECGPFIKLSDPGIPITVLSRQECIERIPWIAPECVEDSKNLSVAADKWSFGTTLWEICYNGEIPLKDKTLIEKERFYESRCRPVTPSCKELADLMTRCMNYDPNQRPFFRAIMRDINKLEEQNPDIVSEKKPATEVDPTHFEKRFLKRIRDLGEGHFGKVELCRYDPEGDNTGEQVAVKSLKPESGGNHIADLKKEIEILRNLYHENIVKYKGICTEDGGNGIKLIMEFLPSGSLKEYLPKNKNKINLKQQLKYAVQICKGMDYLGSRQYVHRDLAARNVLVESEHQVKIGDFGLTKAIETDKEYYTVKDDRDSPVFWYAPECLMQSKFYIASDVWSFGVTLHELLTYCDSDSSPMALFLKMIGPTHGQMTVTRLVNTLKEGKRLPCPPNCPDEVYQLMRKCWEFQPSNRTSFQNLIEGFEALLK

Compound	IC50 [1] [µM]	IC50 [2] [µM]	IC50 [3] [µM]	IC50 [4] [µM]	IC50 [5] [µM]	IC50 [6] [µM]	IC50 [7] [µM]	IC50 [8] [µM]
COC(c1ccc(-n2cc(-c3ccnc4[nH]cnc34)cn2)nc1)C(F)(F)F (stereo not drawn) [Example 1119, 7-(1-(5-(2,2,2-trifluoro-1-methoxyethyl)pyridin-2-yl)-1H-pyrazol-4-yl)-3H-imidazo[4,5-b]pyridine]	0.03	0.2	0.07	> 1	1.3	> 10	> 1	10
CC(O)(c1ccc(-n2cc(-c3ccnc4[nH]cnc34)cn2)nc1)C(F)(F)F (stereo not drawn) [Example 1125, 2-(6-(4-(3H-imidazo[4,5-b]pyridin-7-yl)-1H-pyrazol-1-yl)pyridin-3-yl)-1,1,1-trifluoropropan-2-ol]	0.004	0.023	0.009	0.15	0.27	> 10	0.26	> 10
CC(C)N1CCC([C@@](O)(c2ccc(-n3cc(-c4ccnc5[nH]cnc45)cn3)nc2)C(F)(F)F)C1 (stereo partly drawn) [Example 1225, (R)-1-(6-(4-(3H-imidazo[4,5-b]pyridin-7-yl)-1H-pyrazol-1-yl)pyridin-3-yl)-2,2,2-trifluoro-1-(1-isopropylpyrrolidin-3-yl)ethanol]	0.0025	0.064	0.018	> 1	0.16	> 1	0.47	> 3
CCN1CCC([C@@](O)(c2ccc(-n3cc(-c4ccnc5[nH]cnc45)cn3)nc2)C(F)(F)F)C1 (stereo partly drawn) [Example 1232, (R)-1-(6-(4-(3H-imidazo[4,5-b]pyridin-7-yl)-1H-pyrazol-1-yl)pyridin-3-yl)-1-(1-ethylpyrrolidin-3-yl)-2,2,2-trifluoroethanol]	0.003	0.023	0.015	0.2	0.09	> 1	0.34	> 3

More lines, now with the values ahead:

IC50 [1] [µM]	IC50 [2] [µM]	IC50 [3] [µM]	IC50 [4] [µM]	IC50 [5] [µM]	IC50 [6] [µM]	IC50 [7] [µM]	IC50 [8] [µM]	Compound
0.013	0.073	0.014	> 1	0.45	> 10	< 1	> 10	OC(c1ccc(-n2cc(-c3ccnc4[nH]cnc34)cn2)nc1)C(F)(F)F (stereo not drawn) [Example 1169, 1-(6-(4-(3H-imidazo[4,5-b]pyridin-7-yl)-1H-pyrazol-1-yl)pyridin-3-yl)-2,2,2-trifluoroethanol]
< 0.1	< 0.1	< 0.1	< 0.5	0.21	> 1	> 0.5	> 3	CCN1CCC([C@](O)(c2ccc(-n3cc(-c4ccnc5[nH]cnc45)cn3)nc2)C(F)(F)F)C1 (stereo partly drawn) [Example 1233, (S)-1-(6-(4-(3H-imidazo[4,5-b]pyridin-7-yl)-1H-pyrazol-1-yl)pyridin-3-yl)-1-(1-ethylpyrrolidin-3-yl)-2,2,2-trifluoroethanol]
